Measurements reported in US20050214285A1, “Epitopes or mimotopes derived from the C-epsilon-3 or C-epsilon-4 domains of IgE, antagonists thereof, and their therapeutic uses” (SmithKline Beecham Biologicals, s.a. and Peptide …, priority 1999, published 2005).
“And” between values parts separate entries of the source, which are not always exact repeats. Identical values can stand only once. Each block holds one molecule with its values, some of them ahead of it. Positions of bridges follow the written chain, without caps; N, C: chain ends. Residues, ends and D or L forms follow the SMILES beside them. No end group written: not given here.

Experiments:
human chimaeric IgE = test: IgE plate bound ELISA: anti-human IgE reactivity in mouse serum; assay type: in vivo; conditions: for anti-IgE antibody response when presented on carriers: in vivo
Procedure: ELISA plates are coated with human chimaeric IgE at 1 μg/ml in pH 9.6 carbonate/bicarbonate coating buffer for 1 hour at 37° C. or overnight at 4° C. Non-specific binding sites are blocked with PBS/0.05% Tween-20 containing 5% w/v Marvel milk powder for 1 hour at 37° C. […] Polyclonal serum binding is detected with goat anti-mouse IgG-Biotin (1/2000) followed by Streptavidin-HRP (1/1000). Conjugated antibody is detected with TMB substrate at 450nm. A standard curve of PTmAb0011 is included on each plate so that the anti-IgE reactivity in serum samples can be calculated in μg/ml.
(§1) The conjugates comprising the mimotope P15 (25 μg protein/dose), described in 1.4, were administered into groups of 10 BalbC mice, adjuvanted with and oil in water emulsion containing QS21 and 3D-MPL described in WO 95/17210 . Boosting was be performed on day 21 and on day 42 and sera can be harvested on day 42 and 56. The immune response anti-peptide and anti-plate bound IgE was followed using methods described in Example 1.
The mice were bled after the last immunisation and tested for anti-IgE reactivity in the IgE plate bound ELISA. The individual, average (Av), geomean (GM), results are summarised below (SD=standard deviation).
These vaccines were administered into groups of 10 BalbC mice, and boosting was be performed on day 14 and on day 28 and sera was harvested on day 42. The immune response to anti-plate bound IgE and receptor orientated IgE, was then followed using the techniques described in example 1.4. Also, the activity of the antiserum in the inhibition of histamine release from allergic basophils was measured in the techniques described in 1.5.

biotinylated peptide = test: Anti-peptide ELISA of sera from immunised mice; assay type: in vivo, BalbC mice; conditions: for Anti peptide immune responses, Mid point titres, Av / Anti peptide immune responses, Mid point titres, GM / Anti peptide immune responses/mouse, Mid point titres, mouse 1 / Anti peptide immune responses/mouse, Mid point titres, mouse 2 / Anti peptide immune responses/mouse, Mid point titres, mouse 3 / Anti peptide immune responses/mouse, Mid point titres, mouse 4 / Anti peptide immune responses/mouse, Mid point titres, mouse 5 / Anti peptide immune responses/mouse, Mid point titres, mouse 6 / Anti peptide immune responses/mouse, Mid point titres, mouse 7 / Anti peptide immune responses/mouse, Mid point titres, mouse 8 / Anti peptide immune responses/mouse, Mid point titres, mouse 9 / Anti peptide immune responses/mouse, Mid point titres, mouse 10: conjugated to BSA, 14 days after third vaccination; for Anti peptide immune responses, Mid point titres, Av: average; for Anti peptide immune responses, Mid point titres, GM: geomean
Procedure: The anti-peptide and anti-carrier immune responses were investigated using an ELISA technique outlined below. Microtiterplates (Nunc) are coated with the specific antigen in PBS (4° overnight) with either: Streptavidin at 2 μg/ml (followed by incubation with biotinylated peptide (1 μM) for 1 hour at 37° C.), Wash 3×PBS-Tween 20 0.1%. Saturate plates with PBS-BSA 1%-Tween 20 0.1% (Sat buffer) for 1 hr at 37°. Add 1° antibody=sera in two-step dilution (in Sat buffer), incubate 1 hr 30 minutes at 37°. Wash 3×. Add 2° anti-mouse Ig (or anti-mouse isotype specific monoclonal antibody) coupled to HRP. Incubate 1 hr at 370. Wash 5×. Reveal with TMB (BioRad) for 10 minutes at room temperature in the dark. Block reaction with 0.4N H2SO4.
as §1

[1] = system: basophils from freshly harvested peripheral blood from allergic patients
From the text: Several dilutions of complete sera or IgG purified from conjugate immunised mice can be tested in presence of basophils from freshly harvested peripheral blood from allergic patients.

allergic human basophils = test: Histamine release inhibition from allergic human basophils; assay type: cell-based; conditions: antiserum of an individual immunised mouse, dilution 1/30
Procedure: Blocking activity of anti-P15 antibodies in the antiserum was evaluated by the measuring of the inhibition of the histamine release induced by the allergen. Histamine release and inhibition was measured as described in example 3. As P15 is a mimotope of P1, PTmAb0011 was used as a control as it is known to bind to the same epitope (P1).

PTmAb0011 [2] = test: Phage display ranking of peptide ligands for PTmAb0011; assay type: binding, mouse; conditions: for Rank (ECL) PTmAb0011: primary phage display biopannings (Table 7)
From the text: (§2) Phage display libraries were used to map the binding sites of the monoclonal antibodies using three different phage libraries, displaying either the XCX15, XCX10 or XAX10 peptide sequence (where X is any amino acid) at the N-terminus of the phage gVIIIp. Tables 6 and 7 show the results of selecting for peptide ligands with the anti human IgE monoclonal antibodies […]. […]
(§3) This involved a DNA sub-cloning transfer from the major coat protein (gVIIIp) filamentous phage display vector to a lower copy number minor phage coat protein (gIIIp) display vector with a random PCR step. […] Included in the tables are ranking orders and also BIAcore affinities where available.

PTmAb0011 [3] = test: BIAcore affinity to PTmAb0011; assay type: binding, mouse; conditions: read-out: PTmAb BIAcore KD^Rel (μM) PTmAb0011
From the text: as §3
(§4) Thus indicating the importance of correct presentation of the peptides of the present invention to adopt a shape which closely resembles the native target in the context of the whole IgE molecule. [drawing]

PTmAb0005 [4] = test: BIAcore affinity to PTmAb0005; assay type: binding; conditions: read-out: PTmAb BIAcore KD^Rel (μM) PTmAb0005
From the text: as §3, §4

human IgE = test: Immunisation of mice with peptide expressing phage; assay type: in vivo, mouse; conditions: peptide expressing phage used as immunogen
PTmAb0005 [5] = test: Phage display ranking of peptide ligands for PTmAb0005; assay type: binding
Procedure: as §2
This was performed by introducing random mutations by PCR mutagenesis and sub-cloning into the Fuse 5 vector for minor filamentous phage protein gIIIp display. These, and other results, confirmed the importance of the amino acids within IgEC67 which aligned with the Cε2 epitope. […] Mutations in other sites had little effect on the affinity to PTmAb0005.
as §3

Cε2-4 = molecular target: T1, Cε2-4 (human, UniProt P01854-1 106-428); test: ELISA, graded
T1 construct: also called WT cε2-4; cε2-4 fragment

[6] = BalbC mice, 25 μg protein/dose, day 14 post third vaccination

T1 sequence (P01854 other isoform, or with tags, fused parts or gaps limits assumed): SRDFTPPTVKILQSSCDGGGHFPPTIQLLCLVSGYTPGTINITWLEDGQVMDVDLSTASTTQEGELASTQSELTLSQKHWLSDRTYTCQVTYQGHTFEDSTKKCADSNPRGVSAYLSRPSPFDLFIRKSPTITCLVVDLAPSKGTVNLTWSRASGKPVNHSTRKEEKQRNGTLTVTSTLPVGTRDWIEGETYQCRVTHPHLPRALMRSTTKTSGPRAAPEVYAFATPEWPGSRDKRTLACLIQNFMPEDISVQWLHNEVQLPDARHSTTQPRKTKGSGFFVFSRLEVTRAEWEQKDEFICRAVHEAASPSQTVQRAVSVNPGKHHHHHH

- Kd (PTmAb0011 [3]): 117 µM
- Kd (PTmAb0005 [4]): > 600 µM
Molecule: DALDERAWRARA [EEB33]
- Rank (ECL) PTmAb0011 (PTmAb0011 [2]): 15

- Kd (PTmAb0011 [3]): 42 µM
- Kd (PTmAb0005 [4]): > 1000 µM
Molecule: CC(C)C[C@@H]1NC(=O)[C@H](CC(=O)O)NC(=O)CNC(=O)[C@H](CCC(=O)O)NC(=O)[C@H](CCCNC(=N)N)NC(=O)[C@@H]2CCCN2C(=O)[C@H](Cc2ccccc2)NC(=O)[C@H](C)NC(=O)[C@@H]2CCCN2C(=O)[C@@H](NC(=O)[C@@H](N)CO)CSSC[C@@H](C(=O)N[C@@H](C)C(=O)N2CCC[C@H]2C(=O)N2CCC[C@H]2C(=O)N[C@H](C(=O)N[C@H](C(=O)O)C(C)C)[C@@H](C)O)NC1=O [EEC131] (H-SCPAFPREGDLCAPPTV-OH; disulfide 2-12)
- Rank (ECL) PTmAb0011 (PTmAb0011 [2]): 910

Continued, molecule first:

Molecule: CSQKHWLSDRT-NH2 [Peptide P17]
- anti-IgE antibody response when presented on carriers (human chimaeric IgE): strong anti-IgE antibody responses
- Anti peptide immune responses, Mid point titres, Av (biotinylated peptide): 5446
- Anti peptide immune responses, Mid point titres, GM (biotinylated peptide): 4656
- Anti peptide immune responses/mouse, Mid point titres, mouse 1 (biotinylated peptide): 100
- Anti peptide immune responses/mouse, Mid point titres, mouse 2 (biotinylated peptide): 4349
- Anti peptide immune responses/mouse, Mid point titres, mouse 3 (biotinylated peptide): 2850
- Anti peptide immune responses/mouse, Mid point titres, mouse 4 (biotinylated peptide): 3434
- Anti peptide immune responses/mouse, Mid point titres, mouse 5 (biotinylated peptide): 6133
- Anti peptide immune responses/mouse, Mid point titres, mouse 6 (biotinylated peptide): 2231
- Anti peptide immune responses/mouse, Mid point titres, mouse 7 (biotinylated peptide): 5085
- Anti peptide immune responses/mouse, Mid point titres, mouse 8 (biotinylated peptide): 2991
- Anti peptide immune responses/mouse, Mid point titres, mouse 9 (biotinylated peptide): 13070
- Anti peptide immune responses/mouse, Mid point titres, mouse 10 (biotinylated peptide): 8874
- anaphylactogenicity of the induced antiserum [1]: non anaphylactogenic

Molecule: P15-BSA: P15 (CLEDGQVMDVDLL) conjugated to BSA (CLEDGQVMDVDLL-NH2; also: conjugated to BSA) [Peptide P15-BSA]
- Anti-IgE responses (μg/ml (PTmAb0011)) Average (human chimaeric IgE; [6]): 2.2 µg/mL
- Anti-IgE responses (μg/ml (PTmAb0011)) Geomean (human chimaeric IgE; [6]): 1.0 µg/mL
- % inhibition of histamine release (allergic human basophils): 67% and 57%
- Anti-peptide responses (Mid point titre) Average (biotinylated peptide; [6]): 49591
- Anti-peptide responses (Mid point titre) Geomean (biotinylated peptide; [6]): 48719
- anaphylactogenicity of the induced antiserum [1]: Neither antiserum generated with P15-BSA or P15-PD was shown to be anaphylactogenic

Molecule: CSTTQEGELA-NH2 [Peptide P16]
- anti-IgE antibody response when presented on carriers (human chimaeric IgE): strong anti-IgE antibody responses
- Anti peptide immune responses, Mid point titres, Av (biotinylated peptide): 1882
- Anti peptide immune responses, Mid point titres, GM (biotinylated peptide): 1478
- Anti peptide immune responses/mouse, Mid point titres, mouse 1 (biotinylated peptide): 1891
- Anti peptide immune responses/mouse, Mid point titres, mouse 2 (biotinylated peptide): 649
- Anti peptide immune responses/mouse, Mid point titres, mouse 3 (biotinylated peptide): 1299
- Anti peptide immune responses/mouse, Mid point titres, mouse 4 (biotinylated peptide): 2349
- Anti peptide immune responses/mouse, Mid point titres, mouse 5 (biotinylated peptide): 591
- Anti peptide immune responses/mouse, Mid point titres, mouse 6 (biotinylated peptide): 1474
- Anti peptide immune responses/mouse, Mid point titres, mouse 7 (biotinylated peptide): 4605
- Anti peptide immune responses/mouse, Mid point titres, mouse 8 (biotinylated peptide): 918
- Anti peptide immune responses/mouse, Mid point titres, mouse 9 (biotinylated peptide): 4177
- Anti peptide immune responses/mouse, Mid point titres, mouse 10 (biotinylated peptide): 865
- anaphylactogenicity of the induced antiserum [1]: non anaphylactogenic

Molecule: CC[C@H](C)[C@H](NC(=O)[C@@H]1CSSC[C@H](NC(=O)[C@@H](N)CCCNC(=N)N)C(=O)N[C@@H](CCC(=O)O)C(=O)N[C@@H](CCC(=O)O)C(=O)N[C@@H](Cc2c[nH]c3ccccc23)C(=O)N[C@@H](CC(C)C)C(=O)N1)C(=O)N1CCC[C@H]1C(=O)N1CCC[C@H]1C(=O)N[C@@H](C)C(=O)N1CCC[C@H]1C(=O)N[C@@H](C)C(=O)N[C@@H](Cc1ccccc1)C(=O)N[C@@H](C)C(=O)N1CCC[C@H]1C(=O)N1CCC[C@H]1C(=O)O [EEC21/19] (H-RCEEWLCIPPAPAFAPP-OH; disulfide 2-7)
- Rank (ECL) PTmAb0011 (PTmAb0011 [2]): 3
- Kd (PTmAb0011 [3]): 27.8 µM
- Kd (PTmAb0005 [4]): 14.9 µM

Molecule: DCDWINPPDPPHFWKDT [EEC2/23/44/132]
- Rank (ECL) PTmAb0011 (PTmAb0011 [2]): 33
- Kd (PTmAb0011 [3]): 7 µM
- Kd (PTmAb0005 [4]): > 600 µM

Molecule: CC[C@H](C)[C@@H]1NC(=O)[C@H](Cc2ccccc2)NC(=O)[C@@H](N)CSSC[C@@H](C(=O)N2CCC[C@H]2C(=O)N[C@@H](CCCNC(=N)N)C(=O)N[C@@H](CCC(=O)O)C(=O)O)NC(=O)[C@H](CC(C)C)NC(=O)[C@H](CCC(=O)O)NC(=O)[C@H](CC(C)C)NC(=O)[C@H](CC(=O)O)NC(=O)[C@H](C)NC(=O)[C@H](CCSC)NC(=O)[C@H](CCC(N)=O)NC(=O)[C@H](CCCCN)NC(=O)[C@H](CC(N)=O)NC1=O [IgEC67-8] (H-CFINKQMADLELCPRE-OH; disulfide 1-13)
- PTmAb Rank 0011 (PTmAb0011 [2]; IgEC67 mutants (Table 8)): 2.4
- Kd (PTmAb0011 [3]): 0.066 µM
- Kd (PTmAb0005 [4]): 0.0094 µM
- anti-human IgE response in mice (human IgE): capable of inducing an anti-human IgE response in mice
- Rel. Rank A (PTmAb0005 [5]; IgEC67-8 mutants (Table 9)): 1.00
- Rel. Rank B (PTmAb0005 [5]; IgEC67-8 mutants (Table 9)): 1.00
- PTmAb Rank 0005 (PTmAb0005 [5]; IgEC67 mutants (Table 8)): 4.36

B1: recombinant FcεRIα ectodomain (receptor, UniProt P12319 26-205, looked up)
chain: VPQKPKVSLNPPWNRIFKGENVTLTCNGNNFFEVSSTKWFHNGSLSEETNSSLNIVNAKFEDSGEYKCQHQQVNESEPVYLEVFSDWLLLQASAEVVMEGQPLFLRCHGWRNWDVYKVIYYKDGEALKYWYENHNISITNATVEDSGTYYCTGKVWQLDYESEPLNITVIKAPREKYWLQ
notes: extracellular domain; also called FcεR1α ectodomain; FcεR1α
- binding result (Cε2-4): binds
